A value given as a limit tells only on which side of the number the result lay.

The target in one data set is T1, PI3Kα H1047R (Homo sapiens, UniProt P42336, H1047R).
T1 construct: The MDA-MB-453 (ATCC-HTB-131) cell line (PI3Kα H1047R); host or cells: MDA-MB-453
As to the kind of experiment: PI3Kα H1047R mutant in vitro cell based assay, MDA-MB-453 cells (AlphaLisa SureFire). Particulars: MDA-MB-453 cell line, 0% FBS, 3 hours treatment. The source says: (§1) PI3K-Alpha Kinase (PI3Kα) Activity: Wild-Type PI3Kα, H1047R Mutant PI3Kα, and E545K Mutant PI3Kα In Vitro Cell Based Assays and Determination of IC50 Values for Inhibitors
(§2) The MDA-MB-453 (ATCC-HTB-131) cell line (PI3Kα H1047R) and MCF-7 (ATCC-HTB-22) cell line (PI3Kα E545K), MDA-MB-361 (ATCC-HTB-27) cell line (PI3Kα E545K), and SKBR3 (ATCC-HTB-30) cell line (wild type PI3Kα) were obtained from the American Type Culture Collection (Manassas, VA). MDA-MB-453 cells were maintained in Dulbecco's Modified Eagle Media (DMEM, Gibco 12430) supplemented with 10% Fetal Bovine Serum, heat inactivated (FBS HI, Gibco 10082), 1× non-essential amino acids (NEAA, Gibco 11140), 1 mM sodium pyruvate (Gibco 11360) and 1× Anti-Anti (Gibco 15240). MCF-7 cells were maintained in Minimum Essential Media (MEM) (Gibco 11095) supplemented with 10% Fetal Bovine Serum, heat inactivated (FBS HI, Gibco 10082), 1× non-essential amino acids (NEAA, Gibco 11140), 1 mM sodium pyruvate (Gibco 11360), 1× Anti-Anti (Gibco 15240) and 10 μg/mL human insulin (Sigma I 9278). MDA-MB-361 cells were maintained in Dulbecco's Modified Eagle Media (DMEM, Gibco 12430) supplemented with 20% Fetal Bovine Serum, heat inactivated (FBS HI, Gibco 10082), 1× non-essential amino acids (NEAA, Gibco 11140), 1 mM sodium pyruvate (Gibco 11360) and 1× Anti-Anti (Gibco 15240). SKBR3 cells were maintained in McCoy's 5A (Gibco 16600) supplemented with 10% Fetal Bovine Serum, heat inactivated (FBS HI, Gibco 10082), and 1× Anti-Anti (Gibco 15240). Cultures were maintained in a humidified incubator at 37° C. under 5% CO2/95% air.
(§3) For compound testing in 0% FBS, MDA-MB-453, MCF-7 and SKBR3 cells were seeded at a density of 1.5×10^4, 1.0×10^4, and 1.0×10^4 cells, respectively, per well in white 384-well plates in 20 μl of Minimum Essential Media (MEM) assay media with 1×NEAA, 1 mM sodium pyruvate, and 1 μg/mL human insulin (Sigma 19278) (Assay Medium); while MDA-MB-361 cells were seeded at a density of 1.5×10^4 per well in white 384-well plates in 20 μl Assay Medium without insulin. After plating, cells were allowed to attach overnight. Compounds dissolved in 10 mM stock solutions in DMSO were serially diluted 1:3 in DMSO to generate a 10-point dilution series and plated using an acoustic liquid handler system (Echo 550 Series Liquid Handler, Labcyte). A 5× intermediate compound dilution plate in MEM with 1×NEAA and 1 mM sodium pyruvate (150 μM starting compound concentration in 1.5% DMSO) was then prepared. Five μl of the intermediate serially diluted compounds were added to the cell plate to final concentrations ranging from […] in 0.3% DMSO. 0.3% DMSO alone was used to establish the maximum (MAX) signal and GDC-0032 at a final concentration of 1 μM was used as a reference compound for the minimum (MIN) signal. After 3 hours treatment, the medium was removed, and the cells were lysed in 10 μL of 1× SureFire Lysis buffer with shaking for 10 minutes at room temperature. The Acceptor Mix (Reaction Buffer 1+Reaction Buffer 2+Activation Buffer+SureFire Ultra Acceptor Beads) was prepared by diluting Activation buffer 25-fold in combined Reaction Buffer 1 and Reaction Buffer 2.
(§4) The Acceptor beads were diluted 50-fold in the combined Reaction Buffers. Five μL of Acceptor Mix was added to each well, the plate was sealed and covered with foil and incubated for 1 hour at room temperature. The Donor Mix (dilution buffer+SureFire Ultra Donor Beads) was prepared by diluting Donor Beads 50-fold in dilution buffer. Five μL of the Donor Mix was added to each well and the plate sealed and covered with foil and incubated for 1-2 hours at room temperature in the dark. The plates were read on a Neo2 plate reader instrument from Biotek using standard AlphaLisa settings.
(§5) Compounds were tested in duplicate and the % inhibition at each compound concentration was used to generate two dose response curves. One IC50 was generated using average % inhibition at each compound concentration. […]
(Alpha assays give light when donor and acceptor beads are brought close together.)

For data set [1], the target named is T2, PI3Kα E545K (Homo sapiens, UniProt P42336, E545K). The data set is described as follows: PI3Kα E545K mutant in vitro cell based assay, MDA-MB-361 cells. Particulars: MDA-MB-361 cell line, 0% FBS, no insulin, 3 hours treatment. Also noted: MDA-MB-361 (ATCC-HTB-27) cell line (PI3Kα E545K); host or cells: MDA-MB-361. The procedure, abridged:
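Compound exposure lasted 3 hours, in duplicate 10-point 1:3 dilutions at 0.3% DMSO final, on overnight-attached MDA-MB-361 cells carrying PI3Kα E545K in insulin-free, 0% FBS MEM. Lysates read by SureFire AlphaLISA. Relative IC50 from 4-parameter logistic fit versus DMSO and 1 μM GDC-0032 controls.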

The target in data set [2] is T2, PI3Kα E545K. As to the kind of experiment: PI3Kα E545K mutant in vitro cell based assay, MCF-7 cells. Particulars: MCF-7 cell line, 0% FBS, 3 hours treatment.
Description: as §1, §2, §3, §4, §5

A short description of data set [3]: Metabolic stability and intrinsic clearance in human liver microsomes (MICS). Particulars: human, microsomes, pH 7.4. Type of data set: in vitro ADME. The procedure, abridged:
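Parent depletion by LC-MS/MS, run in duplicate, gave in vitro t1/2 from the slope of ln(% remaining) versus time, converted to CLint (μL/min/mg protein). Incubations: 1 μM compound, microsomes at 0.5 mg/mL, pH 7.4 phosphate, 37° C, ±1 mM NADPH, timepoints 0.5, 5, 15, 30, 60 min.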

T2 sequence (P42336 whole entry E545K): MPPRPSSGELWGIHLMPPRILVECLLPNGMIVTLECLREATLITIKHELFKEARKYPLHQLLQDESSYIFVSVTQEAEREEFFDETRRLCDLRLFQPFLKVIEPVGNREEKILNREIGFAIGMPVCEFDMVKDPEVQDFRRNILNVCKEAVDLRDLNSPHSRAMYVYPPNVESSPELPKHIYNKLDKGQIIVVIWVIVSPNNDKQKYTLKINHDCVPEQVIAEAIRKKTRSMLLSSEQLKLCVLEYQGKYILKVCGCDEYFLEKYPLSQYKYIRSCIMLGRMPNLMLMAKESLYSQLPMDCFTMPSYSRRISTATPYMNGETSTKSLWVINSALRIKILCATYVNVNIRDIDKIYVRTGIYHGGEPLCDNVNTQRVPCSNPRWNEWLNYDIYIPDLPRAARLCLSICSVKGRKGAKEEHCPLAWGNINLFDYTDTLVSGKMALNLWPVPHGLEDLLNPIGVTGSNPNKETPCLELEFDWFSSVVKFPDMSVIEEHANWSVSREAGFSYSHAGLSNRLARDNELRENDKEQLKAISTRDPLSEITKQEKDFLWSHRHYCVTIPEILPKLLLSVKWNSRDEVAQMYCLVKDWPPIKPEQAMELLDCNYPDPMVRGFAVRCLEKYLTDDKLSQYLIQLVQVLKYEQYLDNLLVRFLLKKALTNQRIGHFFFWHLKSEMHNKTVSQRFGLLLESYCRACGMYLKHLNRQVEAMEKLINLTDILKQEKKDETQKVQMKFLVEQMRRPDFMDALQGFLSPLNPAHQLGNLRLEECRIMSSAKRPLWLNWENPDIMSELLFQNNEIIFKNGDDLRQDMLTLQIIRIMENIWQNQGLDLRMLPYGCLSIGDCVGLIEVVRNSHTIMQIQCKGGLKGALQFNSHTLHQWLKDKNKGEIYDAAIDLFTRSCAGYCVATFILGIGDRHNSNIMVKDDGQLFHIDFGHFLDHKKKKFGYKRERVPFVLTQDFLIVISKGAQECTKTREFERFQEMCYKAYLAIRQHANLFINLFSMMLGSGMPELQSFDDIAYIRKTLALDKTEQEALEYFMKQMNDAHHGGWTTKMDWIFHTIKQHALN
T2 sequence (P27986 whole entry partner): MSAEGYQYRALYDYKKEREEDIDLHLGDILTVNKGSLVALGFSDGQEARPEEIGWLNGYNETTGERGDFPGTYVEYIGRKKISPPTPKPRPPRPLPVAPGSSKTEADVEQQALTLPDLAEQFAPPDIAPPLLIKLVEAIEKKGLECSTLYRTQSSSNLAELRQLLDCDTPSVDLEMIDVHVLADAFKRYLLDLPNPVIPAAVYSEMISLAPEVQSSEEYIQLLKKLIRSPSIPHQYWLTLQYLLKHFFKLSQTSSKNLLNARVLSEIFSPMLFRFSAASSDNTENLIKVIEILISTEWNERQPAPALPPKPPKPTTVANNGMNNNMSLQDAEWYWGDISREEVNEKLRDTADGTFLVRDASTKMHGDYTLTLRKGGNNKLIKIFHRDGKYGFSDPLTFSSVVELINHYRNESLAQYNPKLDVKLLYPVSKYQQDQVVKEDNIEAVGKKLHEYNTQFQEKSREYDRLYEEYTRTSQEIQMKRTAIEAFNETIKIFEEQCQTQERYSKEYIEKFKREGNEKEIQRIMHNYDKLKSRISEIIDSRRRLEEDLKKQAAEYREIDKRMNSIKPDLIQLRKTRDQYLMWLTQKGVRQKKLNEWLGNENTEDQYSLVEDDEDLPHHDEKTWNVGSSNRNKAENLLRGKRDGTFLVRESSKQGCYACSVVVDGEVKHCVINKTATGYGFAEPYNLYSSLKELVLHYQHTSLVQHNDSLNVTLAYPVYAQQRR
T1 sequence (P42336 whole entry H1047R): as the sequence (P42336 whole entry E545K) above, with K545E, H1047R counted along it
T1 sequence (P27986 whole entry partner): as the sequence (P27986 whole entry partner) above

In general, IC50 refers to the concentration at which inhibition is half-maximal. Low values mean inhibition by little substance, high ones a need for much substance. On to `Cc1cc([C@@H](C)Oc2ccc(Cl)nc2S(N)(=O)=O)c2oc(-c3cnn(C)n3)c(C)c(=O)c2c1` [Example 35A, 6-Chloro-3-[(1R)-1-[3,6-dimethyl-2-(2-methyltriazol-4-yl)-4-oxo-chromen-8-yl]ethoxy]pyridine-2-sulfonamide], for which the IC50 on PI3Kα H1047R was below 100 nM.
For the compound `Cc1cc([C@@H](C)Oc2ccc(Cl)nc2C(N)=O)c2oc(-c3ccc4nc(C)cn4c3)c(C)c(=O)c2c1` [Example 57A, 6-Chloro-3-[(1R)-1-[3,6-dimethyl-2-(2-methylimidazo[1,2-a]pyridin-6-yl)-4-oxo-chromen-8-yl]ethoxy]pyridine-2-carboxamide], the figures for the IC50 on PI3Kα H1047R and on PI3Kα E545K [1] were below 100 nM and below 500 nM, respectively.
As for `Cc1cc([C@@H](C)Oc2ccc(Cl)nc2S(N)(=O)=O)c2oc(-c3cnn4c3OCC4)c(C)c(=O)c2c1` [Example 85C, 6-Chloro-3-[(1R)-1-[2-(2,3-dihydropyrazolo[5,1-b]oxazol-7-yl)-3,6-dimethyl-4-oxo-chromen-8-yl]ethoxy]pyridine-2-sulfonamide], the 50% inhibitory concentration (IC50) on PI3Kα H1047R is below 100 nM; against PI3Kα E545K [1] it was below 500 nM.
Compound `CCS(=O)(=O)c1ccc(-c2oc3c([C@@H](C)Oc4ccc(Cl)nc4S(N)(=O)=O)cc(C)cc3c(=O)c2C)cc1` [Example 33C, 6-Chloro-3-[(1R)-1-[2-(4-ethylsulfonylphenyl)-3,6-dimethyl-4-oxo-chromen-8-yl]ethoxy]pyridine-2-sulfonamide] came in with an IC50 against PI3Kα H1047R below 100 nM.
For orientation: microsomal CLint means the rate of metabolic loss divided by the concentration. With `CONC(=O)c1nc(Cl)ccc1O[C@H](C)c1cc(C)cc2c(=O)c(C)c(-c3ccc4nn(C)cc4c3)oc12` [Example 26A, 6-Chloro-3-[(1R)-1-[3,6-dimethyl-2-(2-methylindazol-5-yl)-4-oxo-chromen-8-yl]ethoxy]-N-methoxy-pyridine-2-carboxamide], the half-maximal inhibitory concentration (IC50) against PI3Kα E545K [2] and at PI3Kα E545K [1] was below 500 nM each time. Further, in data set [3], the intrinsic metabolic clearance (microsomal CLint) at 1 μM is below 50 µL/min/mg.
As for `Cc1cc([C@@H](C)Oc2ccccc2C(N)=O)c2oc(-c3ccc4nn(C)cc4c3)c(C)c(=O)c2c1` [Example 9A, 2-[(1R)-1-[3,6-Dimethyl-2-(2-methylindazol-5-yl)-4-oxo-chromen-8-yl]ethoxy]benzamide], the half-inhibitory concentration (IC50) against PI3Kα H1047R is below 100 nM.
As to `Cc1cc([C@@H](C)Oc2ccc(Cl)nc2S(N)(=O)=O)c2oc(-c3cnn(CCC(F)F)c3)c(C)c(=O)c2c1` [Example 119C, 6-Chloro-3-[(1R)-1-[2-[1-(3,3-difluoropropyl)pyrazol-4-yl]-3,6-dimethyl-4-oxo-chromen-8-yl]ethoxy]pyridine-2-sulfonamide], the IC50 on PI3Kα E545K [2] and on PI3Kα E545K [1] was below 500 nM in each case. Besides, in data set [3], the microsomal CLint at 1 μM was below 50 µL/min/mg.
Compound `Cc1cc([C@@H](C)Oc2ccc(Cl)nc2S(N)(=O)=O)c2oc(-c3cnc4nonc4c3)c(C)c(=O)c2c1` [Example 30C, 6-Chloro-3-[(1R)-1-[3,6-dimethyl-2-([1,2,5]oxadiazolo[3,4-b]pyridin-6-yl)-4-oxo-chromen-8-yl]ethoxy]pyridine-2-sulfonamide] gave an IC50 against PI3Kα H1047R below 100 nM.
Turning to `Cc1cc([C@@H](C)Oc2ccc(Cl)nc2C(N)=O)c2oc(-c3ccc4nn(C(F)F)cc4c3)c(C)c(=O)c2c1` [Example 66A, 6-Chloro-3-[(1R)-1-[2-[2-(difluoromethyl)indazol-5-yl]-3,6-dimethyl-4-oxo-chromen-8-yl]ethoxy]pyridine-2-carboxamide], the IC50 on PI3Kα E545K [2] and on PI3Kα E545K [1] was below 500 nM throughout. In addition, the intrinsic metabolic clearance (microsomal CLint) at 1 μM in data set [3] was below 50 µL/min/mg.
In the case of `CONS(=O)(=O)c1nc(Cl)ccc1O[C@H](C)c1cc(C)cc2c(=O)c(C)c(-c3ccccc3)oc12` [Example 32A, 6-Chloro-3-[(1R)-1-(3,6-dimethyl-4-oxo-2-phenyl-chromen-8-yl)ethoxy]-N-methoxy-pyridine-2-sulfonamide], on PI3Kα H1047R, the IC50 is below 100 nM.
On the same count and under the same terms, to `Cc1cc([C@@H](C)Oc2ccc(Cl)nc2C(N)=O)c2oc(-c3cnn4c3OCCC4)c(C)c(=O)c2c1` [Example 108A, 6-Chloro-3-[(1R)-1-[2-(6,7-dihydro-5H-pyrazolo[5,1-b][1,3]oxazin-3-yl)-3,6-dimethyl-4-oxo-chromen-8-yl]ethoxy]pyridine-2-carboxamide] belongs below 100 nM; to `Cc1cc([C@@H](C)Oc2ccc(Cl)nc2S(N)(=O)=O)c2oc(-c3ccc4nn(CCO)cc4c3)c(C)c(=O)c2c1` [Example 88C, 6-Chloro-3-[(1R)-1-[2-[2-(2-hydroxyethyl)indazol-5-yl]-3,6-dimethyl-4-oxo-chromen-8-yl]ethoxy]pyridine-2-sulfonamide], below 100 nM.
For the compound `Cc1cc([C@@H](C)Oc2ccc(Cl)nc2S(N)(=O)=O)c2oc(-c3cn[nH]c3)c(C)c(=O)c2c1` [Example 115C, 6-Chloro-3-[(1R)-1-[3,6-dimethyl-4-oxo-2-(1H-pyrazol-4-yl)chromen-8-yl]ethoxy]pyridine-2-sulfonamide], the IC50 at PI3Kα E545K [2] and against PI3Kα E545K [1] was below 500 nM throughout. Moreover, the intrinsic metabolic clearance (microsomal CLint) at 1 μM in data set [3] was below 50 µL/min/mg.
At PI3Kα H1047R, `Cc1cc([C@@H](C)Oc2ccc(Cl)nc2-c2noc(=O)[nH]2)c2oc(-c3cnc4ccoc4c3)c(C)c(=O)c2c1` [Example 6C, 3-[6-Chloro-3-[(1R)-1-(2-furo[3,2-b]pyridin-6-yl-3,6-yl)ethoxy]-2-pyridyl]-4H-dimethyl-4-oxo-chromen-8-1,2,4-oxadiazol-5-one] registered a half-inhibitory concentration (IC50) below 100 nM.
The same measure, in the same setting: to `Cc1cc([C@@H](C)Oc2ccc(Cl)nc2-c2noc(=O)[nH]2)c2oc(-c3cnc4c(c3)OCCN4C)c(C)c(=O)c2c1` [Example 49A, 3-[6-Chloro-3-[(1R)-1-[3,6-dimethyl-2-(4-methyl-2,3-dihydropyrido[3,2-b][1,4]oxazin-7-yl)-4-oxo-chromen-8-yl]ethoxy]-2-pyridyl]-4H-1,2,4-oxadiazol-5-lone] belongs below 100 nM; to `Cc1cc([C@@H](C)Oc2cccnc2S(N)(=O)=O)c2oc(-c3cnn4c3OCC4)c(C)c(=O)c2c1` [Example 95C, 3-[(1R)-1-[2-(2,3-Dihydropyrazolo[5,1-b]oxazol-7-yl)-3,6-dimethyl-4-oxo-chromen-8-yl]ethoxy]pyridine-2-sulfonamide], below 100 nM.

The record behind these values is patent publication US20240182460A1, “ALLOSTERIC CHROMENONE INHIBITORS OF PHOSPHOINOSITIDE 3-KINASE (PI3K) FOR THE TREATMENT OF DISEASE” (PETRA PHARMA CORPORATION, priority 2022, published 2024).
